Measured values from patent publication US11535630B2, “Apelin receptor (APJ) agonists and uses thereof” (Research Triangle Institute, priority 2015, dated 2022).
Where two headings read alike, the source gives them in different places.

Target: T1, apelin receptor (APJ) (Homo sapiens, UniProt P35414)
T1 sequence (P35414 1-380): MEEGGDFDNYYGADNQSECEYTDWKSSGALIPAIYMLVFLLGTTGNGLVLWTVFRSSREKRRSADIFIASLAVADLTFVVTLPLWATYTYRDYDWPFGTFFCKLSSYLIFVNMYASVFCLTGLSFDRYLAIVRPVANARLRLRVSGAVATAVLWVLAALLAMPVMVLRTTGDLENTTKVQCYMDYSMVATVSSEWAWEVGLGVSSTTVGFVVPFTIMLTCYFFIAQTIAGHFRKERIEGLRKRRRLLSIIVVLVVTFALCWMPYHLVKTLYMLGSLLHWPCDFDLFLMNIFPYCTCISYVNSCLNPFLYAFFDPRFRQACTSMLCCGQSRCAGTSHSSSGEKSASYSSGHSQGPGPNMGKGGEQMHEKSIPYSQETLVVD
Assay: In vitro apelin agonist activity (methods of Giddings et al., Apelin-13 as positive control)
Assay type: cell-based
Conditions: in vitro apelin agonist activity, methods of Giddings et al., Apelin-13 as positive control
Excerpt: Characterization of the Apelin Agonist Activity of the Compounds
1:39-47, the contents of which are hereby incorporated by reference in its entirety. Using the methods described in Giddings et al. and Apelin-13 as a positive control.

Row | EC50 (read-out: EC50 (nM) Ave) [nM] | Compound | EC50 (EC50 (nM) Ave) [nM]
1 | 107 | COc1cccc(OC)c1-c1cc(C(=O)N[C@@H](CCN2CCCCCC2)CC(=O)NC2CCC2)nn1C1CCCC1 [compound 324, (3S)-5-(azepan-1-yl)-N-cyclobutyl-3-{[1-cyclopentyl-5-(2,6-dimethoxyphenyl)-1H-pyrazol-3-yl]formamido}pentanamide] | –
2 | > 10000 | COc1cccc(OC)c1-c1cc(C(=O)N[C@@H](CCN2CCCC2)CC(=O)OC(C)(C)C)nn1C1CCCC1 [compound 316, tert-butyl (3S)-3-{[1-cyclopentyl-5-(2,6-dimethoxyphenyl)-1H-pyrazol-3-yl]formamido}-5-(pyrrolidin-1-yl)pentanoate] | –
3 | – | O=C(O)C[C@H](CCN1CC(F)(F)C(F)(F)C(F)(F)C1)NC(=O)c1cc(-c2ccccc2C(F)(F)F)n(C2CCCC2)n1 [compound 566, (3S)-3-({1-cyclopentyl-5-[2-(trifluoromethyl)phenyl]-1H-pyrazol-3-yl}formamido)-5-(3,3,4,4,5,5-hexafluoropiperidin-1-yl)pentanoic acid] | 3050
4 | 738 | O=C(O)C[C@@H](NC(=O)c1cc(-c2ccccc2C(F)(F)F)n(C2CCCC2)n1)C(=O)Nc1ccc(F)cc1 [compound 560, (3R)-3-({1-cyclopentyl-5-[2-(trifluoromethyl)phenyl]-1H-pyrazol-3-yl}formamido)-3-[(4-fluorophenyl)carbamoyl]propanoic acid] | –
5 | 981 | O=C(O)C[C@H](CCN1CC(F)(F)C(F)(F)C1)NC(=O)c1cc(-c2ccccc2C(F)(F)F)n(C2CCCC2)n1 [compound 574, (3S)-3-({1-cyclopentyl-5-[2-(trifluoromethyl)phenyl]-1H-pyrazol-3-yl}formamido)-5-(3,3,4,4-tetrafluoropyrrolidin-1-yl)pentanoic acid] | –
6 | 301 | O=C(C[C@H](CCN1CCC(F)(F)CC1)NC(=O)c1cc(-c2ccccc2C(F)(F)F)n(C2CCCC2)n1)NCC1CCCCC1 [compound 440, (3S)-N-(cyclohexylmethyl)-3-({1-cyclopentyl-5-[2-(trifluoromethyl)phenyl]-1H-pyrazol-3-yl]formamido)-5-(4,4-difluoropiperidin-1-yl)pentanamide] | –
7 | 1060 | O=C(N[C@@H](CC(=O)N1CCCC(F)(F)C1)CS(=O)(=O)NC1CCC1)c1cc(-c2ccccc2C(F)(F)F)n(C2CCCC2)n1 [compound 541, N-[(2S)-1-(cyclobutylsulfamoyl)-4-(3,3-difluoropiperidin-1-yl)-4-oxobutan-2-yl]-1-cyclopentyl-5-[2-(trifluoromethyl)phenyl]-1H-pyrazole-3-carboxamide] | –
8 | 1040 | NNC(=O)C[C@H](CCc1ccc(F)cc1)NC(=O)c1cc(-c2ccccc2C(F)(F)F)n(C2CCCC2)n1 [compound 464] | –
9 | 88 | C[C@H](C(=O)O)[C@H](CCN1CCCC(F)(F)C1)NC(=O)c1cc(-c2ccccc2C(F)(F)F)n(C2CCCC2)n1 [compound 596, (2S,3S)-3-({1-cyclopentyl-5-[2-(trifluoromethyl)phenyl]-1H-pyrazol-3-yl}formamido)-5-(3,3-difluoropiperidin-1-yl)-2-methylpentanoic acid] | –
10 | 23 | O=C(C[C@H](CCN1CCCC(F)(F)C1)NC(=O)c1cc(-c2cnccc2C(F)(F)F)n(C2CCCC2)n1)NC1CCC1 [compound 460, (3S)-N-cyclobutyl-3-(f 1-cyclopentyl-544-(trifluoromethyppyridin-3-yl1-1H-pyrazol-3-yl}formamido)-5-(3,3-difluoropiperidin-1-yl)pentanamide] | –
11 | 45 | O=C(C[C@H](CCN1CCCCC1)NC(=O)c1cc(-c2ccccc2C(F)(F)F)n(C2CCCC2)n1)NC1CC(F)(F)C1 [compound 520, (3S)-3-({1-cyclopentyl-5-[2-(trifluoromethyl)phenyl]-1H-pyrazol-3-yl}formamido)-N-(3,3-difluorocyclobutyl)-5-(piperidin-1-yl)pentanamide] | –
12 | 24 | C[C@H](C[C@@H](CC(=O)O)NC(=O)c1cc(-c2ccccc2C(C)(F)F)n(C2CCCC2)n1)N1C[C@@H](F)[C@H](F)C1 (mixture of isomers) [compound 599, (3S,5R)-3-({1-cyclopentyl-5-[2-(1,1-difluoroethyl)phenyl]-1H-pyrazol-3-yl}formamido)-5-[trans-3,4-difluoropyrrolidin-1-yl]hexanoic acid] | –
13 | – | CN(C[C@@H](CC(=O)NC1CCC1)NC(=O)c1cc(-c2ccccc2C(F)(F)F)n(C2CCCC2)n1)C1CCCCC1 [compound 547] | 5120
14 | 5080 | CCOc1cc(F)c(-c2cc(C(=O)N[C@@H](CCN3CCCCC3)CC(=O)NC3CCC3)nn2C2CCCC2)c(F)c1 [compound 355, (3S)-N-cyclobutyl-3-{[1-cyclopentyl-5-(4-ethoxy-2,6-difluorophenyl)-1H-pyrazol-3-yl]formamido}-5-(piperidin-1-yl)pentanamide] | –
15 | 606 | COc1cccc(OC)c1-c1cc(C(=O)N[C@@H](CCc2ccc(F)cc2)CC(=O)NC2CCC2)nn1C1CCCC1 [compound 416, (3S)-N-cyclobutyl-3-{[1-cyclopentyl-5-(2,6-dimethoxyphenyl)-1H-pyrazol-3-yl]formamido}-5-(4-fluorophenyl)pentanamide] | –
16 | 79 | O=C(C[C@H](CC(=O)N1CCCCC1)NC(=O)c1cc(-c2ccccc2C(F)(F)F)n(C2CCCC2)n1)NC1CCC1 [compound 514, (3R)-N-cyclobutyl-3-({1-cyclopentyl-5-[2-(trifluoromethyl)phenyl]-1H-pyrazol-3-yl}formamido)-5-oxo-5-(piperidin-1-yl)pentanamide] | –
17 | 17.5 | O=C(C[C@H](CCN1CCC(F)(F)CC1)NC(=O)c1cc(-c2ccccc2C(F)(F)F)n(C2CCCC2)n1)Nc1nccs1 [compound 430, (3S)-3-({1-cyclopentyl-5-[2-(trifluoromethyl)phenyl]-1H-pyrazol-3-yl}formamido)-5-(4,4-difluoropiperidin-1-yl)-N-(1,3-thiazol-2-yl)pentanamide] | –
18 | 205 | O=C(O)C[C@@H](NC(=O)c1cc(-c2ccccc2C(F)(F)F)n(C2CCCC2)n1)C(=O)NC1CCCCC1 [compound 544, (3R)-3-(cyclohexylcarbamoyl)-3-({1-cyclopentyl-5-[2-(trifluoromethyl)phenyl]-1H-pyrazol-3-yl]formamido)propanoic acid] | –
19 | > 10000 | CC(C)(C)Cn1nc(C(=O)N[C@@H](CCN2CCCC(F)(F)C2)CC(=O)O)cc1-c1ccccc1C(F)(F)F [compound 568, (3S)-5-(3,3-difluoropiperidin-1-yl)-3-{[1-(2,2-dimethylpropyl)-5-[2-(trifluoromethyl)phenyl]-1H-pyrazol-3-yl]formamido}pentanoic acid] | –
20 | 299 | CC(C[C@@H](CC(=O)NC1CCC1)NC(=O)c1cc(-c2ccccc2C(F)(F)F)n(C2CCCC2)n1)N1CCC(F)(F)C1 (stereo partly drawn) [compound 573, (3S)-N-cyclobutyl-3-({1-cyclopentyl-5-[2-(trifluoromethyl)phenyl]-1H-pyrazol-3-yl}formamido)-5-(3,3-difluoropyrrolidin-1-yl)hexanamide] | –

Row | Compound | EC50 (read-out: EC50 (nM) Ave) [nM] | EC50 (EC50 (nM) Ave) [nM]
21 | CC(C)C[C@H](NC(=O)c1cc(-c2ccccc2C(F)(F)F)n(C2CCCC2)n1)C(=O)O [compound 527, (2S)-2-({1-cyclopentyl-5-[2-(trifluoromethyl)phenyl]-1H-pyrazol-3-yl}formamido)-4-methylpentanoic acid] | > 10000 | –
